≈ marks a conversion by molar mass, not a printed value. Where a name gives a salt, the structure may show the parent alone. Read-outs that look alike come from different tables or passages of the source.
How the values were obtained:
[1] = target: dopamine receptors (3H-dopamine sites); test: Receptor Binding Assay: stereospecific binding of 3H-dopamine to calf caudate membranes; conditions: displacement of 5nM 3H-dopamine; calf caudate membrane homogenate; 37° C., 15 minutes
Experimental: (§1) The procedure for this assay is as follows:
(§2) Calf caudate nuclei were dissected from freshly obtained brains and stored frozen at -76° C.
(§3) Test compounds were added as 20 μl aliquots from stock solutions prepared in absolute ethanol or 0.1% ascorbic acid.
(§4) Immediately following all incubations, proteins were recovered on Whatman GF/B glass fiber filters under reduced pressure. Trapped membranes were solubilized off the filters using 1 ml NCS tissue solubilizer (Amersham/Searle Corp.) at 50° C. for 1 hour. Then, pH was adjusted by adding 0.1 ml glacial acetic acid, 10 ml PCS (Amersham/Searle) added and samples analyzed for membrane-bound radioactivity using a Mark II liquid scintillation counter (Searle Analytical, Inc.).
(§5) IC50 values were determined from log-probit plots using 4-6 concentrations of each compound.
(§6) There as two indications from the assay data as to whether a compound is a probable neuroleptic. Firstly, it must be a dopamine antagonist. […] In other words, it must have a high ^3 H-DA/^3 H-HALO, IC50 ratio.

[2] = target: T1, dopamine receptors (3H-Haloperidol sites) (Bos taurus, UniProt P20288); conditions: for antagonist ratios: in words, compared with known neuroleptics
Experimental: as §1, §2, §3, §4, §5, §6

[3] = target: T1, dopamine receptors (3H-Haloperidol sites); test: biochemical
Experimental: as §1, §2, §3, §4, §5, §6

[4] = system: Escherialla coli ATCC 8739; test: Anti-bacterial assay against aerobic bacteria (serial dilution in nutrient broth); format: cell-based; conditions: no growth of organism; aerobic incubation 20-24 hr. at 37° C.; tested at 100, 10, 1, 0.1 mcgm per ml; read-out: active (minimum concentration at which a compound is active)
Experimental: Evidence of the anti-bacterial utility of the instant compounds vis-a-vis aerobic bacteria is provided by the following standardized test. Nutrient broth (manufactured by Baltimore Biological Laboratories) is prepared by recommended by the manufacturer, sterilized, and inoculated with Escherialla coli ATCC 8739 q.s. one million cells per ml, determined spectrophotometrically. Meanwhile, compound is heated in sterile distilled water at a concentration of 1000 mcgm per ml for 20 minutes at 80° C. This compound preparation is serially diluted and mixed with sufficient inoculated medium to afford concentrations of 100, 10, 1, and 0.1 mcgm of compound per ml. The mixtures thus obtained are incubated aerobically for 20-24 hr. at 37° C. and then examined grossly for growth of the organism. Controls are provided by concurrent incubations identical with the above except that (1) reference standards (4.3, 0.43, 0.043, and 0.0043 mcgm per ml of streptomycin sulfate and 6667, 667, 67, and 7 units of potassium penicillin G) are substituted for compound and (2) neither compound nor reference standard is present. Compounds are considered active if, at the maximum concentrations tested, no growth of organism is observed and no aberrancy is apparent in respect of the controls. Potency is expressed as the minimum concentration at which a compound is active.

T1 sequence (P20288 whole entry): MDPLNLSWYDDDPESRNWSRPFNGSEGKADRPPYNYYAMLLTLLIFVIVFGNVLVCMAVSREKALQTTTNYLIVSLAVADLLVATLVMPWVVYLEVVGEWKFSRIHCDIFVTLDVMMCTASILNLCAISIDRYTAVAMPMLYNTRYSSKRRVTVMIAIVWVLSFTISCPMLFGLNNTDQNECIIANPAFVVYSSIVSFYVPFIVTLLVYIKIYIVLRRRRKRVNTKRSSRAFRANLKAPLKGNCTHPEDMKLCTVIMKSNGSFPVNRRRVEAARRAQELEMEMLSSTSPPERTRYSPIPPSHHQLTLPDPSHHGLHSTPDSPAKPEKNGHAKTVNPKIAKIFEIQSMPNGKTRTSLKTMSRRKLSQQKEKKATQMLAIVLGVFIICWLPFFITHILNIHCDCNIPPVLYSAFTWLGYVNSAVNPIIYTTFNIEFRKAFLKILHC

Structure (SMILES)	IC50 [1] [µM]	Ratio (^3 H-DA/^3 H-HALO IC50 ratio) [2]	IC50 [3] [µM]	MIC [4] [µg/mL]	antagonist ratios [2]	Ratio (^3 H-DA/^3 H-HALO IC50 ratio) ([2]; IC50 3H-dopamine / IC50 3H-Haloperidol, high ratio indicates dopamine antagonist)
CN(C)CCc1c(-c2ccccc2)sc2ccccc12 [2-phenylbenzo[b]thiophene-3-N,N-dimethylethanamine hydrochloride]	12	21	0.62	–	comparable to clozapine and chloropromazine	–
CN1CCN(CCc2c(-c3ccccc3)sc3ccc(Cl)cc23)CC1 [1-[3-(5-chloro-2-phenylbenzo[b]thiophen-3-yl)ethyl]-4-methylpiperazine dihydrochoride]	–	–	–	10 (≈ 27 µM)	–	–
Cl.Clc1ccc2sc(-c3ccccc3)c(CCN3CCCC3)c2c1 [1[2-(5-chloro-2-phenylbenzo[b]thiophen-3-yl)ethyl]pyrrolidine hydrochloride]	48	–	0.65	–	comparable to clozapine and chloropromazine	74
CN(C)CCCc1c(-c2ccccc2)sc2ccc(Cl)cc12 [5-chloro-2-phenylbenzo[b]thiophene-3-N,N-dimethylpropanamine hydrochloride]	48	137	0.35	–	comparable to clozapine and chloropromazine	–
CN1CCN(CCCc2c(-c3ccccc3)sc3ccc(Cl)cc23)CC1.Cl.Cl [1-[3-(5-chloro-2-phenylbenzo[b]thiophen-3-yl)propyl]-4-methylpiperazine dihydrochloride]	–	–	–	100	–	–

Second part, led by results:

IC50 [1] [µM]	Ratio (^3 H-DA/^3 H-HALO IC50 ratio) [2]	IC50 [3] [µM]	MIC [4] [µg/mL]	Structure (SMILES)	antagonist ratios [2]	Ratio (^3 H-DA/^3 H-HALO IC50 ratio) ([2]; IC50 3H-dopamine / IC50 3H-Haloperidol, high ratio indicates dopamine antagonist)
–	–	–	10	Cl.NCCc1c(-c2ccccc2)sc2ccc(Cl)cc12 [5-chloro-2-phenylbenzo[b]thiophene-3-ethanamine hydrochloride]	–	–
6	50	0.12	–	CCN(CC)CCc1c(-c2ccccc2)sc2ccc(Cl)cc12 [5-chloro-2-phenylbenzo[b]thiophene-3-N,N-diethylethanamine hydrochloride]	comparable to clozapine and chloropromazine	–
20	31	0.65	100	CN(C)CCc1c(-c2ccccc2)sc2ccc(Cl)cc12 [5-chloro-2-phenylbenzo[b]thiophene-3-N,N-dimethylethanamine hydrochloride]	comparable to clozapine and chloropromazine	–
–	–	–	100	OCCN1CCN(Cc2c(-c3ccccc3)sc3ccc(Cl)cc23)CC1 [1-[(5-chloro-2-phenylbenzo[b]thiophen-3-yl)methyl]-4-ethanol piperazine dihydrochloride]	–	–

From US4137414A, “5-Substituted-2-phenylbenzo[b]thiophene-3-alkylamines and related compounds” (G. D. Searle & Co., priority 1977, dated 1979)
